Laboratory results from US11040963B2 (priority 2017, dated 2021).

What was measured:
[1] = molecular target: HA H1 A/California/07/09 (Influenza A virus (A/California/07/2009(H1N1)), UniProt C3W5X2); assay: biochemical; conditions: Competition binding (AlphaLISA), pIC50 H1 A/California/07/09
[2] = molecular target: HA H1 A/New Caledonia/20/99 (Influenza A virus (A/New Caledonia/20/1999(H1N1)), UniProt Q6WG00); assay: biochemical; conditions: Competition binding (AlphaLISA), pIC50 H1 A/New Caledonia/20/99
[3] = system: H1N1 A/California/07/09; assay: microbe, parasite or virus in culture; assay type: cell-based, influenza A virus; conditions: Influenza A virus, H1N1, MDCK, 96 h, read-out: Virus neutralization assay (VNA), pEC50 H1N1 A/California/07/09 (converted)
[4] = system: H1N1 A/New Caledonia/20/99; assay: microbe, parasite or virus in culture; assay type: cell-based, influenza A virus; conditions: Influenza A virus, H1N1, MDCK, 96 h, read-out: Virus neutralization assay (VNA), pEC50 H1N1 A/New Caledonia/20/99 (converted)
[5] = molecular target: HA H5 A/Vietnam/1203/04 (Influenza A virus (A/Vietnam/1203/2004(H5N1)), UniProt Q5EP31); assay: biochemical; conditions: Competition binding (AlphaLISA), pIC50 H5 A/Vietnam/1203/04
[6] = system: H5N1 A/Vietnam/1203/04; assay: microbe, parasite or virus in culture; assay type: cell-based, influenza A virus; conditions: Influenza A virus, H5N1, MDCK, 96 h, read-out: Virus neutralization assay (VNA), pEC50 H5N1 A/Vietnam/1203/04, MDCK cells, 96 h, CPE by ATPlite (converted); average of repeats
[7] = in vitro; conditions: dog, Cytotoxicity (pCC50) MDCK

Structure (SMILES)	IC50 [1] [nM]	IC50 [2] [nM]	EC50 [3] [nM]	EC50 [4] [nM]	IC50 [5] [nM]	EC50 [6] [nM]	CC50 [7] [nM]
COc1nnc(C(c2ccccc2)N2CCN(C(=O)c3cc(-c4nc5cc(OC(F)(F)F)ccc5o4)ccn3)CC2)o1 (centres unmarked) [Example 21]	15.8	20	100	79.4	794	6310	12600
COC(=O)C(c1ccccc1)N1CCN(C(=O)c2cccc(-c3nc4cc(OC(F)(F)F)ccc4o3)c2)CC1 (centres unmarked) [Example 23]	20	10	158	126	398	20000	> 50100
COC(=O)C(c1ccccc1)N1CCN(C(=O)c2cccc(-c3nc4ncccc4o3)c2)CC1 (centres unmarked) [Example 24]	63.1	39.8	158	126	3160	12600	> 50100
COc1ccc2oc(-c3ccnc(C(=O)N4CCN(C(c5ccccc5)c5nnc(C)o5)CC4)c3)nc2c1 (centres unmarked) [Example 25]	15.8	25.1	63.1	79.4	794	3980	25100
COC(=O)[C@@H](c1ccccc1)N1CCN(C(=O)c2cccc(-c3nc4cc(C(F)(F)F)ccc4o3)c2)CC1 [Example 26]	25.1	20	158	158	501	7940	> 50100
Cc1nnc(C(c2ccccc2)N2CCN(C(=O)c3cc(-c4nc5cc(OC(F)(F)F)ccc5o4)ccn3)CC2)o1 (centres unmarked) [Example 28]	15.8	20	200	158	501	3980	15800
COC(=O)C(c1ccccc1)N1CCN(C(=O)c2cccc(-c3nc4cc(O)ccc4o3)c2)CC1 (centres unmarked) [Example 30]	25.1	25.1	251	158	631	7940	25100
COC(=O)C(c1ccccc1)N1CCN(C(=O)c2cccc(-c3nc4ccccc4o3)c2)CC1 (centres unmarked) [Example 31]	31.6	25.1	316	158	1260	7940	> 50100
Cc1nnc([C@@H](c2ccccc2)N2CCN(C(=O)c3cccc(-c4nc5c(C)cccc5o4)c3)CC2)o1 [Example 32]	63.1	79.4	316	158	3980	25100	15800
COC(=O)[C@@H](c1ccccc1)N1CCN(C(=O)c2cccc(-c3nc4ccccc4s3)c2)CC1 [Example 33]	50.1	31.6	501	158	398	7940	39800
O=C(c1cc(-c2nc3cc(C(F)(F)F)ccc3o2)ccn1)N1CCN(C(c2ccccc2)c2nnc(C3CC3)o2)CC1 (centres unmarked) [Example 34]	31.6	63.1	126	251	1260	12600	39800
Cc1nnc(C(c2ccccc2)N2CCN(C(=O)c3cccc(-c4nc5cc(N(C)C)ccc5o4)c3)CC2)o1 (centres unmarked) [Example 35]	15.8	15.8	200	158	631	6310	25100
COc1ccc2oc(-c3cccc(C(=O)N4CCN(C(c5ccccc5)c5nnc(C)o5)CC4)c3)nc2c1 (centres unmarked) [Example 36]	25.1	25.1	158	126	1000	7940	20000
COC(=O)[C@@H](c1ccccc1)N1CCN(C(=O)c2cccc(-c3nc4cc(C(F)(F)F)ccc4o3)c2)[C@H](C)C1 [Example 37]	63.1	50.1	251	251	1580	31600	> 50100
Cc1nnc([C@@H](c2ccccc2)N2CCN(C(=O)c3cccc(-c4ncc5ccccc5n4)c3)CC2)o1 [Example 38]	50.1	50.1	316	200	2000	7940	> 50100
CNc1ccc2oc(-c3cccc(C(=O)N4CCN(C(c5ccccc5)c5nnc(C)o5)CC4)c3)nc2c1 (centres unmarked) [Example 39]	25.1	31.6	316	200	1580	10000	15800
Cc1nnc(C(c2ccccc2)N2CCN(C(=O)c3cc(-c4nc5cc(C(F)(F)F)ccc5o4)ccn3)CC2)o1 (centres unmarked) [Example 40]	31.6	50.1	158	251	1260	10000	12600
COC(=O)C(c1ccccc1)N1CCN(C(=O)c2cccc(-c3nc4cc(C(F)(F)F)ccc4o3)c2)CC1 (centres unmarked) [Example 42]	39.8	39.8	316	251	1000	15800	> 50100
COC(=O)C(c1ccccc1)N1CCN(C(=O)c2cccc(-c3nc4ccncc4o3)c2)CC1 (centres unmarked) [Example 43]	31.6	25.1	398	251	1260	10000	> 50100
Cc1nnc(C(c2ccccc2)N2CCN(C(=O)c3cccc(-c4nc5cc(O)ccc5o4)c3)CC2)o1 (centres unmarked) [Example 44]	50.1	50.1	398	316	1580	12600	39800
Cc1nnc([C@@H](c2ccccc2)N2CCN(C(=O)c3cc(-c4nc5cc(C(F)(F)F)ccc5o4)ccc3F)CC2)o1 [Example 45]	63.1	100	251	316	7940	50100	> 50100
COC(=O)[C@H](c1ccccc1)N1CCN(C(=O)c2cccc(-c3nc4cc(C(F)(F)F)ccc4o3)c2)[C@H](C(N)=O)C1 [Example 46]	31.6	31.6	200	158	794	15800	39800
Cc1nnc(C(c2ccccc2)N2CCN(C(=O)c3cccc(-c4nc5cc(F)ccc5o4)c3)CC2)o1 (centres unmarked) [Example 47]	79.4	79.4	398	316	10000	15800	31600
